Measured values: US20210045385A1, “PYRIDAZINONE-SUBSTITUTED KETOXIMES AS HERBICIDES” (FMC Corporation, priority 2018, published 2021)

What was measured:
Format in all cases: in vivo
[1] = test system: ragweed (common ragweed, Ambrosia artemisiifolia); assay: Test C preemergence, visual plant response rating; details: Test C, 0 is no effect, 100 is complete control
How it was run: (§1)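 Visual injury on a 0 (no effect) to 100 (complete control) scale versus untreated controls, scored approximately 10 d after treatment under greenhouse conditions. Treatments used surfactant-containing non-phytotoxic solvent formulations, sprayed onto loam–sand soil preemergence or onto one- to two-leaf plants 2–10 cm tall postemergence.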

[2] = test system: pigweed (Amaranthus retroflexus); assay: Test C preemergence, visual plant response rating; details: Test C, 0 is no effect, 100 is complete control
How it was run: as §1

[3] = test system: kochia (Bassia scoparia); assay: Test C preemergence, visual plant response rating; details: Test C, 0 is no effect, 100 is complete control
How it was run: as §1

[4] = test system: Italian ryegrass (Lolium mutiflorum); assay: Test C preemergence, visual plant response rating; details: Test C, 0 is no effect, 100 is complete control
How it was run: as §1

[5] = test system: barnyardgrass (Echinochloa crus-galli); assay: Test C preemergence, visual plant response rating; details: Test C, 0 is no effect, 100 is complete control
How it was run: as §1

[6] = test system: foxtail, giant (giant foxtail, Setaria faberi); assay: Test C preemergence, visual plant response rating; details: Test C, 0 is no effect, 100 is complete control
How it was run: as §1

[7] = test system: duck salad (Heteranthera limosa); assay: Test D flooded paddy test, visual plant response rating; details: 250 g ai/ha, scale 0 to 100 (0 no effect, 100 complete control), 13 to 15 d
How it was run: (§2)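 Visual injury scores, 0 (no effect) to 100 (complete control), were assigned after 13 to 15 d in the greenhouse by comparison with controls. Test compounds had been added to paddy water covering soil by 3 cm at the 2-leaf stage.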

[8] = test system: barnyardgrass (Echinochloa crus-galli); assay: as above; details: 250 g ai/ha, scale 0 to 100 (0 no effect, 100 complete control), 13 to 15 d
How it was run: as §2

[9] = test system: rice (Oryza sativa); assay: as above; details: 250 g ai/ha, scale 0 to 100 (0 no effect, 100 complete control), 13 to 15 d
How it was run: as §2

[10] = test system: sedge umbrella (small-flower umbrella sedge, Cyperus difformis); assay: as above; details: 250 g ai/ha, scale 0 to 100 (0 no effect, 100 complete control), 13 to 15 d
How it was run: as §2

[11] = test system: blackgrass (Alopecurus myosuroides); assay: Test C postemergence, visual plant response rating
How it was run: as §1

[12] = test system: corn (Zea mays); assay: Test C postemergence, visual plant response rating
How it was run: as §1

[13] = test system: wheat (Triticum aestivum); assay: Test C postemergence, visual plant response rating
How it was run: as §1

[14] = test system: ragweed (common ragweed, Ambrosia artemisiifolia); assay: Test C postemergence, visual plant response rating
How it was run: as §1

[15] = test system: pigweed (Amaranthus retroflexus); assay: Test C postemergence, visual plant response rating
How it was run: as §1

[16] = test system: kochia (Bassia scoparia); assay: Test C postemergence, visual plant response rating
How it was run: as §1

[17] = test system: Italian ryegrass (Lolium mutiflorum); assay: Test C postemergence, visual plant response rating
How it was run: as §1

[18] = test system: galium (catchweed bedstraw, Galium aparine); assay: Test C postemergence, visual plant response rating
How it was run: as §1

[19] = test system: barnyardgrass (Echinochloa crus-galli); assay: Test C postemergence, visual plant response rating
How it was run: as §1

[20] = test system: foxtail, giant (giant foxtail, Setaria faberi); assay: Test C postemergence, visual plant response rating
How it was run: as §1

[21] = Test C, postemergence, 125 g ai/ha

| Structure (SMILES) | Ragweed plant response rating (0 to 100 scale) ([1]; 31 g ai/ha) | Ragweed plant response rating (0 to 100 scale) ([1]; 125 g ai/ha) | Pigweed plant response rating (0 to 100 scale) ([2]; 31 g ai/ha) | Pigweed plant response rating (0 to 100 scale) ([2]; 125 g ai/ha) | Kochia plant response rating (0 to 100 scale) ([3]; 31 g ai/ha) | Kochia plant response rating (0 to 100 scale) ([3]; 125 g ai/ha) | Ryegrass, Italian plant response rating (0 to 100 scale) ([4]; 31 g ai/ha) | Ryegrass, Italian plant response rating (0 to 100 scale) ([4]; 125 g ai/ha) | Barnyardgrass plant response rating (0 to 100 scale) ([5]; 31 g ai/ha) | Barnyardgrass plant response rating (0 to 100 scale) ([5]; 125 g ai/ha) | Foxtail, Giant plant response rating (0 to 100 scale) ([6]; 31 g ai/ha) | Foxtail, Giant plant response rating (0 to 100 scale) ([6]; 125 g ai/ha) | Plant response rating, Ducksalad (Flood) [7] | Plant response rating, Barnyardgrass (Flood) [8] | Plant response rating, Rice (Flood) [9] | Plant response rating, Sedge, Umbrella (Flood) [10] | Blackgrass plant response rating (0 to 100 scale) ([11]; Postemergence, 31 g ai/ha) | Blackgrass plant response rating (0 to 100 scale) [11, 21] | Corn plant response rating (0 to 100 scale) ([12]; Postemergence, 31 g ai/ha) | Corn plant response rating (0 to 100 scale) [12, 21] | other results |
| --- | --- | --- | --- | --- | --- | --- | --- | --- | --- | --- | --- | --- | --- | --- | --- | --- | --- | --- | --- | --- | --- |
| C#CCO/N=C(\c1cccc(/C=C\Cl)c1)c1c(O)c(C)nn(C)c1=O [Compound 264] | 0 | 30 | 0 | 30 | 0 | 0 | 0 | 90 | 0 | 0 | 0 | 20 | 0 | 0 | 0 | 0 | 30 | 60 | 10 | 0 | Wheat plant response rating (0 to 100 scale) ([13]; Postemergence, 31 g ai/ha): 20; Wheat plant response rating (0 to 100 scale) [13, 21]: 50; Ragweed plant response rating (0 to 100 scale) ([14]; Postemergence, 31 g ai/ha): 40; Ragweed plant response rating (0 to 100 scale) [14, 21]: 60; Pigweed plant response rating (0 to 100 scale) ([15]; Postemergence, 31 g ai/ha): 40; Pigweed plant response rating (0 to 100 scale) [15, 21]: 60; Kochia plant response rating (0 to 100 scale) ([16]; Postemergence, 31 g ai/ha): 40; Kochia plant response rating (0 to 100 scale) [16, 21]: 70; Ryegrass, Italian plant response rating (0 to 100 scale) ([17]; Postemergence, 31 g ai/ha): 0; Ryegrass, Italian plant response rating (0 to 100 scale) [17, 21]: 70; Galium plant response rating (0 to 100 scale) ([18]; Postemergence, 31 g ai/ha): 50; Galium plant response rating (0 to 100 scale) [18, 21]: 70; Barnyardgrass plant response rating (0 to 100 scale) ([19]; Postemergence, 31 g ai/ha): 10; Barnyardgrass plant response rating (0 to 100 scale) [19, 21]: 50; Foxtail, Giant plant response rating (0 to 100 scale) ([20]; Postemergence, 31 g ai/ha): 10; Foxtail, Giant plant response rating (0 to 100 scale) [20, 21]: 60 |
| CCCCON=C(c1cc(Cl)cc(Cl)c1Cl)c1c(O)c(C)nn(C)c1=O [Compound 268] | 10 | 60 | 0 | 0 | 0 | 0 | 20 | 90 | 30 | 70 | 70 | 100 | 0 | 0 | 0 | 0 | 0 | 20 | 0 | 30 | Wheat plant response rating (0 to 100 scale) ([13]; Postemergence, 31 g ai/ha): 0; Wheat plant response rating (0 to 100 scale) [13, 21]: 20; Ragweed plant response rating (0 to 100 scale) ([14]; Postemergence, 31 g ai/ha): 70; Ragweed plant response rating (0 to 100 scale) [14, 21]: 100; Pigweed plant response rating (0 to 100 scale) ([15]; Postemergence, 31 g ai/ha): 10; Pigweed plant response rating (0 to 100 scale) [15, 21]: 20; Kochia plant response rating (0 to 100 scale) ([16]; Postemergence, 31 g ai/ha): 10; Kochia plant response rating (0 to 100 scale) [16, 21]: 20; Ryegrass, Italian plant response rating (0 to 100 scale) ([17]; Postemergence, 31 g ai/ha): 60; Ryegrass, Italian plant response rating (0 to 100 scale) [17, 21]: 100; Galium plant response rating (0 to 100 scale) ([18]; Postemergence, 31 g ai/ha): 20; Galium plant response rating (0 to 100 scale) [18, 21]: 50; Barnyardgrass plant response rating (0 to 100 scale) ([19]; Postemergence, 31 g ai/ha): 50; Barnyardgrass plant response rating (0 to 100 scale) [19, 21]: 60; Foxtail, Giant plant response rating (0 to 100 scale) ([20]; Postemergence, 31 g ai/ha): 60; Foxtail, Giant plant response rating (0 to 100 scale) [20, 21]: 90 |
| CCO/N=C(\c1c(O)cnn(C)c1=O)c1ccc(F)c2ccccc12 [Compound 269] | 0 | 0 | 0 | 10 | 0 | 0 | 0 | 10 | 0 | 0 | 0 | 30 | 0 | 0 | 0 | 0 | 0 | 30 | 0 | 20 | Wheat plant response rating (0 to 100 scale) ([13]; Postemergence, 31 g ai/ha): 0; Wheat plant response rating (0 to 100 scale) [13, 21]: 0; Ragweed plant response rating (0 to 100 scale) ([14]; Postemergence, 31 g ai/ha): 10; Ragweed plant response rating (0 to 100 scale) [14, 21]: 40; Pigweed plant response rating (0 to 100 scale) ([15]; Postemergence, 31 g ai/ha): 50; Pigweed plant response rating (0 to 100 scale) [15, 21]: 60; Kochia plant response rating (0 to 100 scale) ([16]; Postemergence, 31 g ai/ha): 0; Kochia plant response rating (0 to 100 scale) [16, 21]: 30; Ryegrass, Italian plant response rating (0 to 100 scale) ([17]; Postemergence, 31 g ai/ha): 0; Ryegrass, Italian plant response rating (0 to 100 scale) [17, 21]: 60; Galium plant response rating (0 to 100 scale) ([18]; Postemergence, 31 g ai/ha): 50; Galium plant response rating (0 to 100 scale) [18, 21]: 80; Barnyardgrass plant response rating (0 to 100 scale) ([19]; Postemergence, 31 g ai/ha): 0; Barnyardgrass plant response rating (0 to 100 scale) [19, 21]: 0; Foxtail, Giant plant response rating (0 to 100 scale) ([20]; Postemergence, 31 g ai/ha): 10; Foxtail, Giant plant response rating (0 to 100 scale) [20, 21]: 40 |
| CCO/N=C(/c1c(O)cnn(C)c1=O)c1ccc(F)c2ccccc12 [Compound 270] | 0 | 10 | 0 | 0 | 0 | 0 | 0 | 10 | 0 | 0 | 0 | 20 | 0 | 0 | 0 | 0 | 0 | 30 | 0 | 0 | Wheat plant response rating (0 to 100 scale) ([13]; Postemergence, 31 g ai/ha): 0; Wheat plant response rating (0 to 100 scale) [13, 21]: 0; Ragweed plant response rating (0 to 100 scale) ([14]; Postemergence, 31 g ai/ha): 20; Ragweed plant response rating (0 to 100 scale) [14, 21]: 70; Pigweed plant response rating (0 to 100 scale) ([15]; Postemergence, 31 g ai/ha): 80; Pigweed plant response rating (0 to 100 scale) [15, 21]: 50; Kochia plant response rating (0 to 100 scale) ([16]; Postemergence, 31 g ai/ha): 20; Kochia plant response rating (0 to 100 scale) [16, 21]: 30; Ryegrass, Italian plant response rating (0 to 100 scale) ([17]; Postemergence, 31 g ai/ha): 0; Ryegrass, Italian plant response rating (0 to 100 scale) [17, 21]: 10; Galium plant response rating (0 to 100 scale) ([18]; Postemergence, 31 g ai/ha): 50; Galium plant response rating (0 to 100 scale) [18, 21]: 80; Barnyardgrass plant response rating (0 to 100 scale) ([19]; Postemergence, 31 g ai/ha): 0; Barnyardgrass plant response rating (0 to 100 scale) [19, 21]: 0; Foxtail, Giant plant response rating (0 to 100 scale) ([20]; Postemergence, 31 g ai/ha): 0; Foxtail, Giant plant response rating (0 to 100 scale) [20, 21]: 10 |
